Laboratory results reported in article PMC7143835, “Anti-Hyperglycemic Effects of Green Crab Hydrolysates Derived by Commercially Available Enzymes” (Foods, 2020).
In brackets after ≈: the same amount, converted by molar mass.

Target: T1, rat intestinal α-glucosidase
T1 construct: gene Si; crude buffer extract of rat intestinal acetone powder; mixture of brush-border alpha-glucosidases
Assay: p-nitrophenyl glucopyranoside hydrolysis, absorbance at […] nm
Format: biochemical
Settings: 5 mM p-NPG stock (printed as beta anomer; 50 µL in 200 µL assay), 0.1 M sodium phosphate pH 6.9, 0.9% NaCl, 37 °C, 10 min preincubation; positive control; crude extract

IC50: 27 µg/mL (≈ 41.8 µM)
SMILES: C[C@H]1O[C@H](O[C@H]2[C@H](O)[C@@H](O)[C@@H](O[C@H]3[C@H](O)[C@@H](O)C(O)O[C@@H]3CO)O[C@@H]2CO)[C@H](O)[C@@H](O)[C@@H]1N[C@H]1C=C(CO)[C@@H](O)[C@H](O)[C@H]1O (stereo partly shown) [acarbose]
